The test deals with WEHI 231 cells. The test can be described thus: Inhibition of CpG-ODN 1760 protection against α-sIgM-induced inhibition of [3H] thymidine uptake. The format is cell-based, mouse. The note with it: for Fold: activity expressed as a fraction of activity of chloroquine / Activity: -log10 of the concentration (M) required for half maximal inhibition of CpG-ODN effect on [3H] thymidine uptake in the presence of α-sIgM: Table 2, 4-aminoquinolines; for Activity: -log10 of the concentration (M) required for half maximal inhibition of CpG-ODN effect on [3H] thymidine uptake in the presence of α-sIgM / Activity,-log10 (concentration (M) for half maximal inhibition of CpG-ODN effect on [3H] thymidine uptake in the presence of α-sIgM): WEHI 231 cells; for vs. Chloroquine, fold / Activity,-log10 (concentration (M) for half maximal inhibition of CpG-ODN effect on [3H] thymidine uptake in the presence of α-sIgM): Table 3, 9-aminoacridines. The protocol: The assay of [^3H] Thymidine incorporation was carried out as follows. WEHI 231 cells (200 μL at 2×10^5/milliliter, in duplicate or triplicate) were incubated in a 96-well plate (Costar, Cambridge Mass.). Additions were made as indicated. After incubating for 16 hours, 0.5 μCi [methyl-^3H] thymidine (2 Ci/millimole, DuPont NEN, Boston Mass.) was added to each well, and the cells were incubated for another 4 hours. Cellular DNA was then captured onto glass fiber filters (Whatman 934AH) using a cell harvester (Brandel, Gaithersberg Md.). The filters were dried, placed into plastic scintillation vials with 10 milliliters of scintillation cocktail (EconoSafe, Research Products International, Mount Prospect Ill.), and counted in a liquid scintillation counter (Beckman LS-3133 T). The ^3H recovered on the filter was expressed as a fraction of the ^3H added.
Referring to experiments summarized in FIG. 1, WEHI 231 cells (ca. 2×10^5 per milliliter) were incubated for 16 hours at 37° C. with 10 μgrams/milliliter α-sIgM, 6 μgrams/milliliter ODN 1760, and the indicated concentration of the compound. After 16 hours, 0.5 μCi [^3H] thymidine was added. After 4 more hours incubation, the cellular DNA was harvested onto glass fiber filters. The dry filters were counted in a liquid scintillation counter.
Each experimental point was the mean of at least duplicate measurements.
Referring to the experiments summarized in FIG. 3, 10 μgrams/milliliter α-sIgM and the indicated concentrations of ODN 1760 and quinacrine were added simultaneously to WEHI 231 cells. Thymidine incorporation was estimated at 16 hours as described for Example 1.
Referring to the experiments summarized in FIG. 4, WEHI 231 cells were incubated with α-sIgM and ODN 1760. At times thereafter 0.1 μM quinacrine was added (data shown in the left three bars). Cells were incubated with 10 μgrams/milliliter (α-sIgM and ODN 1760 (6 μgrams/milliliter, phosphorothioate or a phosphodiester ODN with the same sequence as 1760 (PD ODN) (30 μM at time 0 hours and 8 hours; data represented in right six bars in FIG. 4). [^3H] thymidine incorporation was estimated at 16 hours.
The symbol — indicates no change. Me and Et indicate —CH3 and —CH2CH3 respectively. Aromatic substituents are in the para position except as indicated. The activity is —log10 of the concentration (M) required for half maximal inhibition of CpG-ODN effect on [^3H] thymidine uptake in the presence of α-sIgM.

For the compound `CC[N+](C)(CC)CCCC(C)Nc1ccnc2cc(Cl)ccc12` (stereo not shown) [compound 8], the “Fold: activity expressed as a fraction of activity of chloroquine” value (“Fold: activity expressed as a fraction” below) stood at 0.02 fold and the “Activity: -log10 of the concentration (M) required for half maximal inhibition of CpG-ODN effect on [3H] thymidine uptake in the presence of α-sIgM” value is 5.18.

Regarding `CCN(CC)CCCC(CNc1ccnc2cc(Cl)ccc12)c1ccc(Cl)cc1` (stereo not shown) [compound 33], the “Fold: activity expressed as a fraction” value is 2.95 fold and the “Activity: -log10 of the concentration (M) required for half maximal inhibition of CpG-ODN effect on [3H] thymidine uptake in the presence of α-sIgM” value was determined as 7.43.

As to `CCN(CC)CCCC(Nc1c2ccc(Cl)cc2nc2ccc(OC)cc12)c1ccc(OC)cc1` (stereo not shown) [compound 30], the “vs. Chloroquine, fold” value is on record as 2.09 fold and the “Activity,-log10 (concentration (M) for half maximal inhibition of CpG-ODN effect on [3H] thymidine uptake in the presence of α-sIgM)” value is 7.28.

Regarding `CCN(CC)CCCC(C)Nc1ccnc2cc(C)ccc12` (stereo not shown) [compound 37], the “Fold: activity expressed as a fraction” value worked out at 0.03 fold and the “Activity: -log10 of the concentration (M) required for half maximal inhibition of CpG-ODN effect on [3H] thymidine uptake in the presence of α-sIgM” value is 5.50.

On to `COc1ccc2nc3cc(Cl)ccc3c(N)c2c1` [compound 59, 9-amino-6-chloro-2-methoxyacridine], for which the “vs. Chloroquine, fold” value was 1.00 fold and the “Activity,-log10 (concentration (M) for half maximal inhibition of CpG-ODN effect on [3H] thymidine uptake in the presence of α-sIgM)” value came to 6.96.

`CCN(CC)CCCC(C)Nc1ccnc2cc(C)ccc12` (stereo not shown) [compound 3]: the “Fold: activity expressed as a fraction” value is listed as 0.16 fold and the “Activity: -log10 of the concentration (M) required for half maximal inhibition of CpG-ODN effect on [3H] thymidine uptake in the presence of α-sIgM” value amounted to 6.16.

`COc1ccc2nc3cc(Cl)ccc3c(NCCCNCCCCNCCCNc3c4ccc(Cl)cc4nc4ccc(OC)cc34)c2c1` [compound 58, bis-(6-chloro-2-methoxy-9-acridinyl)spermine]: the “vs. Chloroquine, fold” value is recorded as 0.26 fold and the “Activity,-log10 (concentration (M) for half maximal inhibition of CpG-ODN effect on [3H] thymidine uptake in the presence of α-sIgM)” value came out at 6.38.

Regarding `CCN(CC)CCCC(C)Nc1c(C)cnc2cccc(Br)c12` (stereo not shown) [compound 62], the “Fold: activity expressed as a fraction” value was determined as 0.35 fold and the “Activity: -log10 of the concentration (M) required for half maximal inhibition of CpG-ODN effect on [3H] thymidine uptake in the presence of α-sIgM” value amounted to 6.51.

Turning to `CCN(CC)CCCC(C)Nc1cc(-c2ccccc2)nc2cc(Cl)ccc12` (stereo not shown) [compound 48], the “Fold: activity expressed as a fraction” value was 2.14 fold and the “Activity: -log10 of the concentration (M) required for half maximal inhibition of CpG-ODN effect on [3H] thymidine uptake in the presence of α-sIgM” value is recorded as 7.29.

For `CCN(CC)CCCC(C)Nc1ccnc2cc(OC)ccc12` (stereo not shown) [compound 14], the “Fold: activity expressed as a fraction” value is reported as 0.17 fold and the “Activity: -log10 of the concentration (M) required for half maximal inhibition of CpG-ODN effect on [3H] thymidine uptake in the presence of α-sIgM” value is given as 6.20.

Take `CCN(CC)CCCC(Nc1c2ccc(Cl)cc2nc2ccc(OC)cc12)c1cccnc1` (stereo not shown) [compound 24]: the “vs. Chloroquine, fold” value amounted to 3.63 fold and the “Activity,-log10 (concentration (M) for half maximal inhibition of CpG-ODN effect on [3H] thymidine uptake in the presence of α-sIgM)” value is on record as 7.52.

Consider `CCN(CC)CCC(CNc1ccnc2cc(Cl)ccc12)c1ccccc1` (stereo not shown) [compound 7], for which the “Fold: activity expressed as a fraction” value stood at 1.38 fold and the “Activity: -log10 of the concentration (M) required for half maximal inhibition of CpG-ODN effect on [3H] thymidine uptake in the presence of α-sIgM” value worked out at 7.10.

As for `CCN(CC)CCCC(Nc1c2ccc(Cl)cc2nc2ccc(OC)cc12)c1cccc2ccccc12` (stereo not shown) [compound 29], the “vs. Chloroquine, fold” value is reported as 1.91 fold and the “Activity,-log10 (concentration (M) for half maximal inhibition of CpG-ODN effect on [3H] thymidine uptake in the presence of α-sIgM)” value was determined as 7.24.

Consider `CCN(CC)CCCC(C)Nc1c(C)cnc2cc(OC)ccc12` (stereo not shown) [compound 41], for which the “Fold: activity expressed as a fraction” value is 0.28 fold and the “Activity: -log10 of the concentration (M) required for half maximal inhibition of CpG-ODN effect on [3H] thymidine uptake in the presence of α-sIgM” value turned out to be 6.64.

For the compound `CCN(CC)CCCC(C)Nc1ccnc2cc(F)ccc12` (stereo not shown) [compound 13], the “Fold: activity expressed as a fraction” value stood at 0.26 fold and the “Activity: -log10 of the concentration (M) required for half maximal inhibition of CpG-ODN effect on [3H] thymidine uptake in the presence of α-sIgM” value turned out to be 6.38.

Take `CCN(CC)CCCC(CCl)Nc1ccnc2cc(Cl)ccc12` (stereo not shown) [compound 56]: the “Fold: activity expressed as a fraction” value is listed as 1.45 fold and the “Activity: -log10 of the concentration (M) required for half maximal inhibition of CpG-ODN effect on [3H] thymidine uptake in the presence of α-sIgM” value amounted to 7.12.

As to `CCN(CC)CCCC(C)Nc1ccnc2cc(Cl)c(SCc3ccccc3)cc12` (stereo not shown) [compound 43], the “Fold: activity expressed as a fraction” value was determined as 4.57 fold and the “Activity: -log10 of the concentration (M) required for half maximal inhibition of CpG-ODN effect on [3H] thymidine uptake in the presence of α-sIgM” value amounted to 7.62.

Consider `CCN(CC)CCCC(C)Nc1ccnc2cc(Cl)ccc12` (stereo not shown) [compound 11], for which the “Activity: -log10 of the concentration (M) required for half maximal inhibition of CpG-ODN effect on [3H] thymidine uptake in the presence of α-sIgM” value amounted to 6.56.

In the case of `CCN(CC)CCCC(C)Nc1ccnc2cccc(Cl)c12` (stereo not shown) [compound 9], the “Fold: activity expressed as a fraction” value is recorded as 0.76 fold and the “Activity: -log10 of the concentration (M) required for half maximal inhibition of CpG-ODN effect on [3H] thymidine uptake in the presence of α-sIgM” value was 6.84.

Consider `CCN(CC)CCCC(C)Nc1c(C)cnc2cc(Cl)ccc12` (stereo not shown) [compound 1], for which the “Fold: activity expressed as a fraction” value was 0.55 fold and the “Activity: -log10 of the concentration (M) required for half maximal inhibition of CpG-ODN effect on [3H] thymidine uptake in the presence of α-sIgM” value came to 6.70.

Regarding `CCN(CC)CCCC(C)Nc1ccnc2ccc(-c3ccccc3)cc12` (stereo not shown) [compound 51], the “Fold: activity expressed as a fraction” value came to 1.62 fold and the “Activity: -log10 of the concentration (M) required for half maximal inhibition of CpG-ODN effect on [3H] thymidine uptake in the presence of α-sIgM” value came to 7.17.

As to `CCN(CC)CCCC(C)Nc1c2ccc(Cl)cc2nc2cc(OC)c(OC)cc12` (stereo not shown) [compound 26], the “vs. Chloroquine, fold” value was determined as 10.72 fold and the “Activity,-log10 (concentration (M) for half maximal inhibition of CpG-ODN effect on [3H] thymidine uptake in the presence of α-sIgM)” value was determined as 7.99.

On to `CCN(CC)CCCC(Nc1c2ccc(Cl)cc2nc2ccc(OC)cc12)c1cccs1` (stereo not shown) [compound 27], for which the “vs. Chloroquine, fold” value is given as 1.82 fold and the “Activity,-log10 (concentration (M) for half maximal inhibition of CpG-ODN effect on [3H] thymidine uptake in the presence of α-sIgM)” value amounted to 7.22.

On to `CCN(CC)CCCC(C)Nc1ccnc2cc(Cl)ccc12` (stereo not shown) [compound 15], for which the “Activity: -log10 of the concentration (M) required for half maximal inhibition of CpG-ODN effect on [3H] thymidine uptake in the presence of α-sIgM” value is recorded as 6.96.

Regarding `CCN(CC)CCC(CNc1ccnc2cc(Cl)ccc12)c1ccc(OC)cc1` (stereo not shown) [compound 61], the “Fold: activity expressed as a fraction” value is listed as 0.79 fold and the “Activity: -log10 of the concentration (M) required for half maximal inhibition of CpG-ODN effect on [3H] thymidine uptake in the presence of α-sIgM” value came to 6.86.

With `CCN(CC)CCCC(C)Nc1ccnc2ccc(Oc3ccccc3)cc12` (stereo not shown) [compound 42], the “Fold: activity expressed as a fraction” value was 1.48 fold and the “Activity: -log10 of the concentration (M) required for half maximal inhibition of CpG-ODN effect on [3H] thymidine uptake in the presence of α-sIgM” value is recorded as 7.13.

On to `CCN(CC)CCCC(C)Nc1ccnc2cc(Br)ccc12` (stereo not shown) [compound 4], for which the “Fold: activity expressed as a fraction” value is 0.72 fold and the “Activity: -log10 of the concentration (M) required for half maximal inhibition of CpG-ODN effect on [3H] thymidine uptake in the presence of α-sIgM” value was found to be 6.82.

Regarding `CCN(CC)CCC(CNc1c(C)cnc2cc(Cl)ccc12)c1ccc(Cl)c(Cl)c1` (stereo not shown) [compound 65], the “Fold: activity expressed as a fraction” value was found to be 0.58 fold and the “Activity: -log10 of the concentration (M) required for half maximal inhibition of CpG-ODN effect on [3H] thymidine uptake in the presence of α-sIgM” value is recorded as 6.72.

In the case of `C=C[C@H]1C[N@@]2CC[C@H]1C[C@H]2[C@H](O)c1ccnc2ccc(OC)cc12` [quinine, reference compound], the “Effect on CpG-ODN action (FIG. 1)” value (at concentrations less than 10 μM) is recorded as “little effect”.

For the compound `CCN(CC)CCCC(C)Nc1c(-c2ccccc2)cnc2cc(Cl)ccc12` (stereo not shown) [compound 12], the “Fold: activity expressed as a fraction” value is 0.69 fold and the “Activity: -log10 of the concentration (M) required for half maximal inhibition of CpG-ODN effect on [3H] thymidine uptake in the presence of α-sIgM” value is given as 6.80.

As to `CCN(CC)CCCC(C)Nc1c(C)cnc2c(OC)c(Cl)ccc12` (stereo not shown) [compound 63], the “Fold: activity expressed as a fraction” value is 0.10 fold and the “Activity: -log10 of the concentration (M) required for half maximal inhibition of CpG-ODN effect on [3H] thymidine uptake in the presence of α-sIgM” value is 5.95.

Take `CCN(CC)CC(CNc1ccnc2cc(Cl)ccc12)c1ccc(OC)cc1` (stereo not shown) [compound 34]: the “Fold: activity expressed as a fraction” value worked out at 5.04 fold and the “Activity: -log10 of the concentration (M) required for half maximal inhibition of CpG-ODN effect on [3H] thymidine uptake in the presence of α-sIgM” value came to 7.66.

In the case of `OC1CCCC1Nc1ccnc2cc(Cl)ccc12` (stereo not shown) [compound 47], the “Fold: activity expressed as a fraction” value was found to be 0.02 fold and the “Activity: -log10 of the concentration (M) required for half maximal inhibition of CpG-ODN effect on [3H] thymidine uptake in the presence of α-sIgM” value is 5.25.

Take `CCN(CC)Cc1cc(Nc2ccnc3cc(Cl)ccc23)ccc1O` [amodiaquine, reference compound]: where the note is “at nanomolar concentrations, 10 μg/mL α-sIgM, 6 μg/mL ODN 1760”, the “Inhibition of the CpG-ODN effect (FIG. 1)” value is given as “completely inhibited”.
